We go through one molecule from patent publication US20090325977A1 (priority 2004, published 2009).

The test system of test [1] is VEGF-stimulated endothelial cell proliferation (HUVEC). Put plainly: HUVEC assay, VEGF-stimulated endothelial cell proliferation. It is filed as cell-based. Particulars: Homo sapiens.
For test [2], the system named is basal endothelial cell proliferation (HUVEC). Put plainly: HUVEC assay, basal endothelial cell proliferation. It is filed as cell-based. Particulars: Homo sapiens, no VEGF stimulation.
A further test deals with Calu-6 tumour xenograft. Put plainly: Calu-6 tumour xenograft, in vivo solid tumour model. Particulars: once-daily oral, 28 days.
Test [3] addresses stem cell factor receptor tyrosine kinase (SCF RTK, c-kit) (Homo sapiens, UniProt P10721). The test can be described thus: inhibition of c-kit. It is filed as biochemical.
In another test the test system is MG63 cells. Particulars: MG63 cells stimulated by PDGF-AA; read-out: IC50, PDGFR-α dependent cellular proliferation; cited from earlier work.

Sequence of stem cell factor receptor tyrosine kinase (SCF RTK, c-kit) (P10721 26-976): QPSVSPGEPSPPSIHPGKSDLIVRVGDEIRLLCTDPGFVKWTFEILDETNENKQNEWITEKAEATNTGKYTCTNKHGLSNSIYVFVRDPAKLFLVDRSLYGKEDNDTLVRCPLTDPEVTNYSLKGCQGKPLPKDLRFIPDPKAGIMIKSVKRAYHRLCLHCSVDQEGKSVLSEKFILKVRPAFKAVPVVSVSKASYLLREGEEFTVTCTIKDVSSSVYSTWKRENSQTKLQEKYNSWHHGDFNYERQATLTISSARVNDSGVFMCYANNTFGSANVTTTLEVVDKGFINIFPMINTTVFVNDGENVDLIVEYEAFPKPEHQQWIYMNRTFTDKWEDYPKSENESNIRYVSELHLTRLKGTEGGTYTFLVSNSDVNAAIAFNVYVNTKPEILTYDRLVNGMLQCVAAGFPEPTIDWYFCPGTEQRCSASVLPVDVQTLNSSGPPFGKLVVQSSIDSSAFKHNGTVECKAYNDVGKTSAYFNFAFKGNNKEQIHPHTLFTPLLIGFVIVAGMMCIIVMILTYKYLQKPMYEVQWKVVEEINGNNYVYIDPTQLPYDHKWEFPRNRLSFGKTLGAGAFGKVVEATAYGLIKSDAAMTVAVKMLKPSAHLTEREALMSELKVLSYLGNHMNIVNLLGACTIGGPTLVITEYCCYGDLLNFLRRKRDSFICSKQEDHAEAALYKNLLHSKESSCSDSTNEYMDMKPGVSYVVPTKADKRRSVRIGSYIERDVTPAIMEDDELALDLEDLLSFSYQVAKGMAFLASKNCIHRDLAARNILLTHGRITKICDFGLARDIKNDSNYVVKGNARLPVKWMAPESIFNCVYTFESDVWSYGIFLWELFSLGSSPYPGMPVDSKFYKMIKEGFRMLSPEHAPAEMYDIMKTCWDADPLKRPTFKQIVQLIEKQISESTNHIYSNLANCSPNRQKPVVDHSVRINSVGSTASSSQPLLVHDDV

For the molecule `COc1cc2c(Oc3ccc4[nH]c(C)cc4c3F)ncnc2cc1OCCCN1CCCC1` [AZD2171, 4-(4-fluoro-2-methyl-1H-indol-5-yloxy)-6-methoxy-7-(3-(pyrrolidin-1-yl)propoxy)quinazoline], the results for the IC50 (in test [1]; in test [2]; in the test with MG63 cells) were 0.4 ± 0.2 nM, over 500 nM and 40 nM, respectively. Besides, the “inhibition of Calu-6 tumour xenograft growth” value is recorded as 49% with Calu-6 tumour xenograft (1.5 mg/kg/day, P<0.01); 69% with Calu-6 tumour xenograft (3 mg/kg/day, P<0.0001); 91% in the test on Calu-6 tumour xenograft (6 mg/kg/day, P<0.0001). Moreover, the inhibition of c-kit entry in test [3] is listed as “inhibits c-kit”.
